Data reported in ChEMBL document CHEMBL2380305, “Discovery of thiazolobenzoxepin PI3-kinase inhibitors that spare the PI3-kinase β isoform” (Bioorg Med Chem Lett, 2013).

Tests used:
[1] = Plasma clearance in dog; type: ADME, organism-based, Canis lupus familiaris
in vivo [2] = details: nude, mouse, plasma, iv, 1 mg/kg
in vivo [3] = details: Sprague-Dawley, rat, plasma, iv, 1 mg/kg
Rattus norvegicus = experiment: Unbound plasma clearance in Sprague-Dawley rat at 1 mg/kg, iv; type: ADME, organism-based; parameters: dose 1 mg/kg, route intravenous; details: in vivo
[4] = Plasma clearance in Beagle dog at 1 mg/kg, iv; type: ADME, organism-based, Canis lupus familiaris; parameters: dose 1 mg/kg, route intravenous
[5] = Oral bioavailability in Beagle dog at 2 mg/kg; type: ADME, organism-based, Canis lupus familiaris; details: in vivo
[6] = Oral bioavailability in Sprague-Dawley rat at 5 mg/kg; type: ADME, organism-based; details: in vivo
[7] = Oral bioavailability in nude mouse at 25 mg/kg; type: ADME, organism-based; details: in vivo
[8] = Apparent permeability across apical to basolateral side in MDCK cells; type: ADME, cell-based, Canis lupus familiaris; details: dog

With `CC(C)n1ncnc1-c1cc2c(s1)-c1ccc(C(N)=O)cc1OCC2` the clearance [1] was 100 mL/min/kg.

`CC(C)n1ncnc1-c1nc2c(s1)CCOc1cc(C3CN(CCO)C3)ccc1-2` gave a clearance (in vivo [2]) of 132 mL/min/kg and a clearance (in vivo [3]) of 128 mL/min/kg.

Compound `CC(C)n1ncnc1-c1nc2c(s1)CCOc1cc(C3CN(C[C@H](O)CO)C3)ccc1-2` has a clearance (in vivo [2]) of 165 mL/min/kg and a clearance (in vivo [3]) of 57 mL/min/kg.

Compound `CC(C)n1ncnc1-c1nc2c(s1)CCOc1cc(C3CN(CC(C)(C)O)C3)ccc1-2` has a clearance (in vivo [2]) of 170 mL/min/kg and a clearance (in vivo [3]) of 163 mL/min/kg.

In the case of `CC(C)n1ncnc1-c1nc2c(s1)CCOc1cc(C3CN(C(=O)C(C)(C)N)C3)ccc1-2`, the CL free (Rattus norvegicus) is reported as 1153 mL/min/kg and the clearance (in vivo [3]) is reported as 60 mL/min/kg.

In the case of `CC(C)n1ncnc1-c1nc2c(s1)CCOc1cc(C3CN(C(C)(C)C(N)=O)C3)ccc1-2`, the clearance (in vivo [2]) is reported as 104 mL/min/kg and the clearance (in vivo [3]) is reported as 55 mL/min/kg.

Compound `CC(C)n1ncnc1-c1nc2c(s1)CCOc1cc(-c3cnn(CCO)c3)ccc1-2` has a clearance (in vivo [2]) of 9.5 mL/min/kg, a clearance [4] of 14 mL/min/kg and a bioavailability [5] of 22%. It also gave a clearance (in vivo [3]) of 5.4 mL/min/kg, a bioavailability [6] of 83% and a bioavailability [7] of 110%. It also gave a Papp A→B [8] of 16 ×10⁻⁶ cm/s.

Compound `CC(C)n1ncnc1-c1nc2c(s1)CCOc1cc(-c3cnn(CC(C)(C)O)c3)ccc1-2` has a clearance (in vivo [2]) of 3.1 mL/min/kg and a clearance (in vivo [3]) of 6.8 mL/min/kg.

Work on `CC(C)n1ncnc1-c1nc2c(s1)CCOc1cc(-c3cnn(CS(C)(=O)=O)c3)ccc1-2` yielded a clearance (in vivo [2]) of 3.2 mL/min/kg and a clearance (in vivo [3]) of 6.1 mL/min/kg.

Work on `CC(C)n1ncnc1-c1nc2c(s1)CCOc1cc(-c3cnn(C(C)(C)C(N)=O)c3)ccc1-2` yielded a clearance (in vivo [2]) of 13.4 mL/min/kg, a CL free (Rattus norvegicus) of 625 mL/min/kg and a clearance (in vivo [3]) of 10 mL/min/kg.

Compound `Cc1nc(-c2nc3c(s2)CCOc2cc(-c4cnn(CCO)c4)ccc2-3)n(C(C)C)n1` has a clearance (in vivo [2]) of 2.2 mL/min/kg and a clearance (in vivo [3]) of 1.9 mL/min/kg.

`CC(C)n1nc(N)nc1-c1nc2c(s1)CCOc1cc(-c3cnn(CC(C)(C)O)c3)ccc1-2` gave a clearance (in vivo [2]) of 4 mL/min/kg and a clearance (in vivo [3]) of 55 mL/min/kg.

Compound `CC(C)n1c(-c2nc3c(s2)CCOc2cc(-c4cnn(CC(C)(C)O)c4)ccc2-3)n[nH]c1=O` has a clearance (in vivo [2]) of 22 mL/min/kg and a clearance (in vivo [3]) of 84 mL/min/kg.
